Results published in PMC2984425, “Safety and pharmacokinetics of novel selective vascular endothelial growth factor receptor-2 inhibitor YN968D1 in patients with advanced malignancies” (BMC Cancer, 2010).

System: patients with advanced solid tumors
Assay: Treatment-related adverse events graded by NCI-CTC v3.0
Format: in vivo, human
Description: Medical records and laboratory tests were obtained during screening. Physical examination, routine laboratory evaluations, and performance status were assessed at baseline and at specified time points throughout the trial. AEs and concomitant medications were recorded at the end of each cycle. The safety evaluation period extended through 30 days from the last dose of study drug or through recovery to grade 1 or better from all acute toxicities associated with drug administration. Toxicity was evaluated and graded according to the NCI-CTC for Adverse Events, version 3.0.

`N#CC1(c2ccc(NC(=O)c3cccnc3NCc3ccncc3)cc2)CCCC1` [apatinib] was tested, and the “Anemia grade 1-2, %” value (250 mg cohort) was 25.0%, the “Anemia grade 1-2, No.” value (250 mg cohort) was 1 and the “Hyperbilirubinemia grade 3-4, %” value (250 mg cohort) was 25%. For the same compound, the “Hyperbilirubinemia grade 3-4, No.” value (250 mg cohort) was 1, the “Hypertension grade 1-2, %” value (250 mg cohort) was 50% and the “Hypertension grade 1-2, No.” value (250 mg cohort) was 2. For the same compound, the “Infection grade 1-2, %” value (250 mg cohort) was 25.0%, the “Infection grade 1-2, No.” value (250 mg cohort) was 1 and the “Proteinuria grade 3-4, %” value (250 mg cohort) was 25.0%. For the same compound, the “Proteinuria grade 3-4, No.” value (250 mg cohort) was 1, the “Thrombocytopenia grade 1-2, %” value (250 mg cohort) was 25.0% and the “Thrombocytopenia grade 1-2, No.” value (250 mg cohort) was 1. The “Transaminase Increased grade 1-2, %” value (250 mg cohort) was 50.0%, the “Transaminase Increased grade 1-2, No.” value (250 mg cohort) was 2 and the “Anemia grade 1-2, %” value (500 mg cohort) was 9%. For the same compound, the “Anemia grade 1-2, No.” value (500 mg cohort) was 1, the “Anorexia grade 1-2, %” value (500 mg cohort) was 18.2% and the “Anorexia grade 1-2, No.” value (500 mg cohort) was 2. The “Diarrhea grade 1-2, %” value (500 mg cohort) was 9%, the “Diarrhea grade 1-2, No.” value (500 mg cohort) was 1 and the “Fatigue grade 1-2, %” value (500 mg cohort) was 9%. For the same compound, the “Fatigue grade 1-2, No.” value (500 mg cohort) was 1, the “Hand-Food Syndrome grade 1-2, %” value (500 mg cohort) was 36.4% and the “Hand-Food Syndrome grade 1-2, No.” value (500 mg cohort) was 4. The “Hand-Food Syndrome grade 3-4, %” value (500 mg cohort) was 9%, the “Hand-Food Syndrome grade 3-4, No.” value (500 mg cohort) was 1 and the “Hemorrhage grade 1-2, %” value (500 mg cohort) was 36.4%. The “Hemorrhage grade 1-2, No.” value (500 mg cohort) was 4, the “Hemorrhage grade 3-4, %” value (500 mg cohort) was 9% and the “Hemorrhage grade 3-4, No.” value (500 mg cohort) was 1. For the same compound, the “Hoarseness grade 1-2, %” value (500 mg cohort) was 9%, the “Hoarseness grade 1-2, No.” value (500 mg cohort) was 1 and the “Hypertension grade 1-2, %” value (500 mg cohort) was 63.6%. For the same compound, the “Hypertension grade 1-2, No.” value (500 mg cohort) was 7, the “Infection grade 1-2, %” value (500 mg cohort) was 9% and the “Infection grade 1-2, No.” value (500 mg cohort) was 1. The “Mucosal ulcers grade 1-2, %” value (500 mg cohort) was 18.2%, the “Mucosal ulcers grade 1-2, No.” value (500 mg cohort) was 2 and the “Neutropenia grade 1-2, %” value (500 mg cohort) was 18.2%. For the same compound, the “Neutropenia grade 1-2, No.” value (500 mg cohort) was 2, the “Neutropenia grade 3-4, %” value (500 mg cohort) was 18.2% and the “Neutropenia grade 3-4, No.” value (500 mg cohort) was 2. The “Pain grade 1-2, %” value (500 mg cohort) was 36.4%, the “Pain grade 1-2, No.” value (500 mg cohort) was 4 and the “Pain grade 3-4, %” value (500 mg cohort) was 18.2%. For the same compound, the “Pain grade 3-4, No.” value (500 mg cohort) was 2, the “Proteinuria grade 1-2, %” value (500 mg cohort) was 36.4% and the “Proteinuria grade 1-2, No.” value (500 mg cohort) was 4. For the same compound, the “Proteinuria grade 3-4, %” value (500 mg cohort) was 9%, the “Proteinuria grade 3-4, No.” value (500 mg cohort) was 1 and the “Rash grade 1-2, %” value (500 mg cohort) was 9%. The “Rash grade 1-2, No.” value (500 mg cohort) was 1, the “Thrombocytopenia grade 1-2, %” value (500 mg cohort) was 18.2% and the “Thrombocytopenia grade 1-2, No.” value (500 mg cohort) was 2. The “Thrombocytopenia grade 3-4, %” value (500 mg cohort) was 0%, the “Thrombocytopenia grade 3-4, No.” value (500 mg cohort) was 0 and the “Transaminase Increased grade 1-2, %” value (500 mg cohort) was 9%. The “Transaminase Increased grade 1-2, No.” value (500 mg cohort) was 1, the “Transaminase Increased grade 3-4, %” value (500 mg cohort) was 9% and the “Transaminase Increased grade 3-4, No.” value (500 mg cohort) was 1. The “Vomiting grade 1-2, %” value (500 mg cohort) was 0%, the “Vomiting grade 1-2, No.” value (500 mg cohort) was 0 and the “Albinism grade 1-2, %” value (750 mg cohort) was 6.7%. The “Albinism grade 1-2, No.” value (750 mg cohort) was 1, the “Anemia grade 1-2, %” value (750 mg cohort) was 20% and the “Anemia grade 1-2, No.” value (750 mg cohort) was 3. For the same compound, the “Anorexia grade 1-2, %” value (750 mg cohort) was 20%, the “Anorexia grade 1-2, No.” value (750 mg cohort) was 3 and the “Diarrhea grade 1-2, %” value (750 mg cohort) was 20%. The “Diarrhea grade 1-2, No.” value (750 mg cohort) was 3, the “Fatigue grade 1-2, %” value (750 mg cohort) was 26.7% and the “Fatigue grade 1-2, No.” value (750 mg cohort) was 4. For the same compound, the “Fatigue grade 3-4, %” value (750 mg cohort) was 6.7%, the “Fatigue grade 3-4, No.” value (750 mg cohort) was 1 and the “Hand-Food Syndrome grade 1-2, %” value (750 mg cohort) was 46.7%. For the same compound, the “Hand-Food Syndrome grade 1-2, No.” value (750 mg cohort) was 7, the “Hand-Food Syndrome grade 3-4, %” value (750 mg cohort) was 13.3% and the “Hand-Food Syndrome grade 3-4, No.” value (750 mg cohort) was 2. The “Hemorrhage grade 1-2, %” value (750 mg cohort) was 33.3%, the “Hemorrhage grade 1-2, No.” value (750 mg cohort) was 5 and the “Hoarseness grade 1-2, %” value (750 mg cohort) was 13.3%. For the same compound, the “Hoarseness grade 1-2, No.” value (750 mg cohort) was 2, the “Hypertension grade 1-2, %” value (750 mg cohort) was 60% and the “Hypertension grade 1-2, No.” value (750 mg cohort) was 9. For the same compound, the “Hypertension grade 3-4, %” value (750 mg cohort) was 13.3%, the “Hypertension grade 3-4, No.” value (750 mg cohort) was 2 and the “Infection grade 1-2, %” value (750 mg cohort) was 26.7%. For the same compound, the “Infection grade 1-2, No.” value (750 mg cohort) was 4, the “Mucosal ulcers grade 1-2, %” value (750 mg cohort) was 13.3% and the “Mucosal ulcers grade 1-2, No.” value (750 mg cohort) was 2. For the same compound, the “Mucosal ulcers grade 3-4, %” value (750 mg cohort) was 13.3%, the “Mucosal ulcers grade 3-4, No.” value (750 mg cohort) was 2 and the “Neutropenia grade 1-2, %” value (750 mg cohort) was 46.7%. The “Neutropenia grade 1-2, No.” value (750 mg cohort) was 7, the “Pain grade 1-2, %” value (750 mg cohort) was 26.7% and the “Pain grade 1-2, No.” value (750 mg cohort) was 4. For the same compound, the “Pain grade 3-4, %” value (750 mg cohort) was 13.3%, the “Pain grade 3-4, No.” value (750 mg cohort) was 2 and the “Proteinuria grade 1-2, %” value (750 mg cohort) was 46.67%. The “Proteinuria grade 1-2, No.” value (750 mg cohort) was 7, the “Proteinuria grade 3-4, %” value (750 mg cohort) was 20% and the “Proteinuria grade 3-4, No.” value (750 mg cohort) was 3. The “Rash grade 1-2, %” value (750 mg cohort) was 6.7%, the “Rash grade 1-2, No.” value (750 mg cohort) was 1 and the “Thrombocytopenia grade 1-2, %” value (750 mg cohort) was 40%. For the same compound, the “Thrombocytopenia grade 1-2, No.” value (750 mg cohort) was 6, the “Transaminase Increased grade 1-2, %” value (750 mg cohort) was 40% and the “Transaminase Increased grade 1-2, No.” value (750 mg cohort) was 6. The “Vomiting grade 1-2, %” value (750 mg cohort) was 26.7%, the “Vomiting grade 1-2, No.” value (750 mg cohort) was 4 and the “Anemia grade 1-2, %” value (850 mg cohort) was 15.4%. For the same compound, the “Anemia grade 1-2, No.” value (850 mg cohort) was 2, the “Anemia grade 3-4, %” value (850 mg cohort) was 7.7% and the “Anemia grade 3-4, No.” value (850 mg cohort) was 1. The “Anorexia grade 1-2, %” value (850 mg cohort) was 7.7%, the “Anorexia grade 1-2, No.” value (850 mg cohort) was 1 and the “Diarrhea grade 1-2, %” value (850 mg cohort) was 15.4%. The “Diarrhea grade 1-2, No.” value (850 mg cohort) was 2, the “Dyspnea grade 1-2, %” value (850 mg cohort) was 7.7% and the “Dyspnea grade 1-2, No.” value (850 mg cohort) was 1. For the same compound, the “Fatigue grade 1-2, %” value (850 mg cohort) was 30.8%, the “Fatigue grade 1-2, No.” value (850 mg cohort) was 4 and the “Hand-Food Syndrome grade 1-2, %” value (850 mg cohort) was 30.8%. The “Hand-Food Syndrome grade 1-2, No.” value (850 mg cohort) was 4, the “Hand-Food Syndrome grade 3-4, %” value (850 mg cohort) was 15.4% and the “Hand-Food Syndrome grade 3-4, No.” value (850 mg cohort) was 2. For the same compound, the “Hemorrhage grade 1-2, %” value (850 mg cohort) was 7.7%, the “Hemorrhage grade 1-2, No.” value (850 mg cohort) was 1 and the “Hoarseness grade 1-2, %” value (850 mg cohort) was 7.7%.
